Assay results reported in patent US20090253720A1, “ANTIFOLATE COMPOSITIONS” (Chelsea Therapeutics, Inc., priority 2008, published 2009).
Several values for one entry are separate records, joined by “and”; a condition that tells them apart may be missing. Equal entries are not always repeated. One block for each compound: values may come before it.

Assays:
[1] = biological target: T1, reduced folate carrier (RFC) (Homo sapiens, UniProt P41440); experiment: [3H]MTX transport inhibition in intact CCRF-CEM human T-cell leukemia cells; type: cell-based; settings: 2 μM [3H]MTX, 37°, 5 min uptake
T1 construct: endogenous in cells; host or cells: CCRF-CEM human T-cell leukemia cells
T1 sequence (P41440 1-591): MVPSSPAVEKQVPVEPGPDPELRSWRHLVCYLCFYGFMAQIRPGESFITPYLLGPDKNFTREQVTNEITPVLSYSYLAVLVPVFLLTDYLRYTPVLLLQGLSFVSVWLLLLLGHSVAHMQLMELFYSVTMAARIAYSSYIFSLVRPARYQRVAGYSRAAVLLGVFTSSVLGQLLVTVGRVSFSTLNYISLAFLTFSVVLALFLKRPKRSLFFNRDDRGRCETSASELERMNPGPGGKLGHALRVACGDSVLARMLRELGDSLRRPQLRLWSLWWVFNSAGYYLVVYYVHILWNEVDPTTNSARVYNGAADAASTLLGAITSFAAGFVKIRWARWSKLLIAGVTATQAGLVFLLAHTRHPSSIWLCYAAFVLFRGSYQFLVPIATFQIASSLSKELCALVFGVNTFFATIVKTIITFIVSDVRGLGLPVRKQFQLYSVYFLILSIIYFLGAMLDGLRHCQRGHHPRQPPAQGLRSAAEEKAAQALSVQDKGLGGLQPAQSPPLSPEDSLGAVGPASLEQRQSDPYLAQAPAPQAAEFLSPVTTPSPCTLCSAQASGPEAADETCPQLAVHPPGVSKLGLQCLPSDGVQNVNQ
Protocol: Transport of 2 μM [^3H]MTX (methotrexate) at 37° by intact CCRF-CEM human T-cell leukemia was assayed by a micro-method utilizing repeated iced saline washes to remove extracellular drug. Such method is disclosed in McGuire J J, et al., Cancer Res 1989; 49:4517-25 and McGuire J J, et al., Cancer Res 2006; 66:3836-44, both of which are incorporated herein by reference in their entirety. The washed cell pellets were solubilized in 1 ml of 0.3% Triton X-100 at 37° C. for 1 hour before transfer to scintillation vials; 10 ml Ecoscint liquid scintillation fluid (National Diagnostics, Atlanta, Ga.) was added and radioactivity was quantitated in a Beckman LS6500 scintillation counter. […] Uptake was initiated by addition of 200 μL of cells at ≈2.5×10^7 cells/ml and 2 aliquots (100 μL) were removed to iced saline and processed at 5 min. Adventitious [^3H]MTX binding was determined at 0° C. by adding 200 μl of cells to 25 μl of PBS in a tube and cooling to 0° C. in ice for ≧5 min; following addition of 25 μl of [^3H]MTX to achieve a final concentration of 2 μM, 2 aliquots (100 μL) were immediately removed to iced saline and processed.
Analytical HPLC was performed on a Rainin Instruments HPLC system using the Dynamax controller and data capture module run on a Macintosh computer, such as described in McGuire J J, et al., J Biol Chem 1990; 265:14073-9, which is incorporated herein by reference in its entirety. C18 reversed-phase (0.4×25 cm; Rainin Microsorb, 5μ) HPLC was performed at 25° C. Detection was by absorbance at 280 and/or 254 nm. For MTX (tr, ≈31.6 min) and 7-OH-MTX (tr, ≈35.2 min) the gradient was from 4-13% ACN in 0.1 M Na-acetate, pH 5.5 over 41 min at 1 ml/min.

[2] = Comparative dissolution with cyclodextrin formulation (FIG. 4); type: physicochemical; settings: 45 minutes
From the text: Compositions according to the invention using cyclodextrins have also shown similarly beneficial results. The improved solubility of the inventive compositions comprising an antifolate compound and a cyclodextrin is illustrated in FIG. 4, wherein the comparative dissolution of an antifolate compound is again given as a percent dissolution as a function of time. The antifolate compound was again tested in the diacid form (denoted as “Free acid”), in the sodium salt form (denoted as “Disodium salt”), and as the sodium salt form in a pharmaceutical composition according to the invention including a cyclodextrin (denoted as “Cyclodextrin formulation”). […] The inventive formulation approached 100% dissolution within 30 minutes. After 45 minutes, the salt alone and the diacid alone achieved only about 70% dissolution and about 45% dissolution, respectively.

[3] = Comparative dissolution in 0.1N hydrochloric acid, USP dissolution apparatus with HPLC (FIG. 2, FIG. 3); type: physicochemical
Protocol: The percent dissolution for both compounds in 0.1N hydrochloric acid as a function of time was evaluated using a standard USP dissolution apparatus and high performance liquid chromatography (HPLC) test equipment. […] This is particularly relevant in the case of pharmaceutical compositions of the invention for oral delivery, wherein the composition will encounter an acidic environment, such as in the stomach. Greater solubility of the sodium salt compound indicates a greater amount of the active compound will be available for absorption.
Such improved solubility is illustrated in FIG. 3, wherein the comparative dissolution of an antifolate compound is given as the percent dissolution as a function of time. The antifolate compound was tested in the diacid form (denoted as “CH-1504 free acid”), in the sodium salt form (denoted as “CH-1504 sodium salt”), and as the sodium salt form in a pharmaceutical composition according to the invention including […]® 44/14 (denoted as “CH-1504 formulation”). Dissolution was tested using 0.1N hydrochloric acid. […] The inventive formulation achieved 90% dissolution by 30 minutes and 100% dissolution by 45 minutes. After 90 minutes, the salt alone and the diacid alone achieved only about 75% dissolution and about 50% dissolution, respectively.

[4] = Protocol: A salt screen of this compound was conducted with various pharmaceutically acceptable counterions to analyze aqueous solubility of the formed salts. Formed solids suspected of forming salts were analyzed by X-ray powder diffraction (XRPD).
[5] = Pharmacokinetics of a single oral dose in a healthy subject; settings: human, in vivo
Protocol: The pharmacokinetic parameters of a single oral dose of the antifolate compound according to the invention were evaluated. In Comparative Examples 2-7, 1 to 20 mg of an antifolate compound according to Formula (9) was administered in the racemic free acid form (i.e., not as part of a pharmaceutical formulation). The drug product was supplied as powder-filled gelatin capsules in three active strengths (1.0 mg, 2.5 mg. and 5.0 mg) with each capsule including enough microcrystalline cellulose to bring the total capsule weight to 288 mg. […] In Examples 2-8, the test material was administered to a healthy subject, and blood samples were taken before dosing and at 0.5, 1, 1.5, 2, 2.5, 3, 3.5, 4, 5, 6, 8, 10, 12, 16, 24, and 48 hours after dosing. The calculated pharmacokinetic values observed are provided below in Table 3.
In Table 3, Cmax is the maximum measured plasma concentration of the antifolate compound administered and tmax is the time to Cmax. […] Thus, the pharmaceutical formulations of the present invention allow for greatly reducing the amount of antifolate compound that is administered to a subject while actually increasing the amount of the compound that is available for therapeutic action.

[6] = Plasma concentration after oral L- or D-CH-1504 in non-fasted rats (Example 14); type: in vivo; settings: individual animals; for Plasma conc. of D-CH-1504 / Plasma conc. of L-CH-1504: non-fasted female Lewis rats
Protocol: L- or D-CH-1504 was administered once orally to non-fasted female Lewis rats at a dose of 10 mg/kg (vehicle: 0.11% carboxymethylcellulose/0.45% TWEEN 80, formulation: suspension). About 750 μL of blood was collected from the jugular vein at 1 and 3 hours after administration. And then, whole of blood was collected from the femoral vein under diethyl ether anesthesia at 6 hours after administration. The collected blood was immediately centrifuged to obtain a plasma sample. L- and D-CH-1504 were extracted from the plasma by solid-phase extraction and were then determined with a LC/MS/MS.

[7] = tested on: CCRF-CEM cells; experiment: Growth inhibition of CCRF-CEM cells by continuous (120 hr) drug exposure; type: cell-based, human; settings: continuous 120 hr exposure
Protocol: The human T-lymphoblastic leukemia cell line CCRF-CEM (described in Foley G F, et al., Cancer 1965; 18:522-9) was cultured as described in McCloskey D E, et al., J Biol Chem 1991; 266:6181-7 (both of which are incorporated herein by reference in their entirety) and verified to be negative for Mycoplasma contamination (Mycoplasma Plus PCR primers, Stratagene, La Jolla, Calif.).

[8] = Hygroscopicity study of salts at 75% relative humidity for five days; type: physicochemical
From the text: Hygroscopicity and approximate solubility in aqueous and buffered solutions of ammonium, besylate, calcium, esylate, sulfate, HCl, mesylate, napsylate, potassium, disodium, and tosylate salts were compared. In the hygroscopicity study, the salts were subjected to 75% relative humidity for five days.

IC50 [1]: 1700 nM | percent dissolution [2]: about 45% | percent dissolution ([3]; FIG. 2, 45 minutes): 45% | percent dissolution ([3]; FIG. 3, 15 minutes): approximately 35% | percent dissolution ([3]; FIG. 3, 90 minutes): about 50% | solubility (in words) [4]: poor solubility | AUC(0-inf) ([5]; 1 mg): 1.52 ng·h/mL | AUC(0-t) ([5]; 1 mg): 1.25 ng·h/mL | Cmax ([5]; 1 mg): 0.69 ng/mL | Tmax ([5]; 1 mg): 2.26 h | half-life ([5]; 1 mg): 0.99 h | AUC(0-inf) ([5]; 5 mg): 9.58 ng·h/mL | AUC(0-t) ([5]; 5 mg): 8.92 ng·h/mL | Cmax ([5]; 5 mg): 2.65 ng/mL | Tmax ([5]; 5 mg): 1.26 h | half-life ([5]; 5 mg): 3.21 h | AUC(0-inf) ([5]; 7.5 mg): 7.47 ng·h/mL | AUC(0-t) ([5]; 7.5 mg): 6.63 ng·h/mL | Cmax ([5]; 7.5 mg): 2.05 ng/mL | Tmax ([5]; 7.5 mg): 1.5 h | half-life ([5]; 7.5 mg): 2.71 h | AUC(0-inf) ([5]; 10 mg): 26 ng·h/mL | AUC(0-t) ([5]; 10 mg): 25.2 ng·h/mL | Cmax ([5]; 10 mg): 6 ng/mL | Tmax ([5]; 10 mg): 2.01 h | half-life ([5]; 10 mg): 3.13 h | AUC(0-inf) ([5]; 15 mg): 25.9 ng·h/mL | AUC(0-t) ([5]; 15 mg): 25 ng·h/mL | Cmax ([5]; 15 mg): 6.57 ng/mL | Tmax ([5]; 15 mg): 2.25 h | half-life ([5]; 15 mg): 3.2 h | AUC(0-inf) ([5]; 20 mg): 35.6 ng·h/mL | AUC(0-t) ([5]; 20 mg): 34.6 ng·h/mL | Cmax ([5]; 20 mg): 7.83 ng/mL | Tmax ([5]; 20 mg): 2.25 h | half-life ([5]; 20 mg): 3.91 h
Structure (SMILES): C=C(CC(NC(=O)c1ccc(CCc2ccc3nc(N)nc(N)c3c2)cc1)C(=O)O)C(=O)O (racemic) [CH-1504, 2-{4-[2-(2,4-diamino-quinazolin-6-yl)-ethyl]-benzoylamino}-4-methylene-pentanedioic acid]

IC50 [1]: 1500 nM
Structure (SMILES): Nc1nc(N)c2nc(CNc3ccc(C(=O)N[C@@H](CCC(=O)O)C(=O)O)cc3)cnc2n1 [Aminopterin, reference compound]

IC50 [1]: 7600 nM | Plasma conc. of D-CH-1504 ([6]; 1 h after 10 mg/kg oral): 31.5 ng/mL and 20.5 ng/mL and 11.0 ng/mL | Plasma conc. of D-CH-1504 ([6]; 3 h after 10 mg/kg oral): 14.3 ng/mL and 9.44 ng/mL and 8.93 ng/mL | Plasma conc. of D-CH-1504 ([6]; 6 h after 10 mg/kg oral): 8.34 ng/mL and 13.6 ng/mL and 8.01 ng/mL | EC50 [7]: 29 nM
Structure (SMILES): C=C(C[C@@H](NC(=O)c1ccc(CCc2ccc3nc(N)nc(N)c3c2)cc1)C(=O)O)C(=O)O [D-CH-1504]
Plasma conc. of L-CH-1504 ([6]; 1 h after 10 mg/kg oral): 0.895 ng/mL and BLQ (Below limit of quantification (<0.500 ng/mL)) (2×) | Plasma conc. of L-CH-1504 ([6]; 3 h after 10 mg/kg oral): BLQ (Below limit of quantification (<0.500 ng/mL)) | Plasma conc. of L-CH-1504 ([6]; 6 h after 10 mg/kg oral): BLQ (Below limit of quantification (<0.500 ng/mL))

IC50 [1]: 1100 nM | Plasma conc. of L-CH-1504 ([6]; 1 h after 10 mg/kg oral): 139 ng/mL and 118 ng/mL | Plasma conc. of L-CH-1504 ([6]; 3 h after 10 mg/kg oral): 36.8 ng/mL and 59.7 ng/mL | Plasma conc. of L-CH-1504 ([6]; 6 h after 10 mg/kg oral): 22.2 ng/mL and 21.7 ng/mL | concentration at 1 h ([6]; female, Lewis, rat, plasma, oral, 10 mg/kg, 1 h after 10 mg/kg oral, read-out: Plasma conc. of L-CH-1504): 144 ng/mL | concentration at 3 h ([6]; female, Lewis, rat, plasma, oral, 10 mg/kg, 3 h after 10 mg/kg oral, read-out: Plasma conc. of L-CH-1504): 61.9 ng/mL | concentration at 6 h ([6]; female, Lewis, rat, plasma, oral, 10 mg/kg, 6 h after 10 mg/kg oral, read-out: Plasma conc. of L-CH-1504): 22.7 ng/mL
Structure (SMILES): C=C(C[C@H](NC(=O)c1ccc(CCc2ccc3nc(N)nc(N)c3c2)cc1)C(=O)O)C(=O)O [L-CH-1504, (S)-2-{4-[2-(2,4-diamino-quinazolin-6-yl)-ethyl]-benzoylamino}-4-methylene-pentanedioic acid]
Plasma conc. of D-CH-1504 ([6]; 1 h after 10 mg/kg oral): BLQ (Below limit of quantification (<0.500 ng/mL)) | Plasma conc. of D-CH-1504 ([6]; 3 h after 10 mg/kg oral): BLQ (Below limit of quantification (<0.500 ng/mL)) | Plasma conc. of D-CH-1504 ([6]; 6 h after 10 mg/kg oral): BLQ (Below limit of quantification (<0.500 ng/mL))

Structure (SMILES): Cc1ccc(S(=O)(=O)O)cc1.Cn1cc(-c2ccc3nnc(C(F)(F)c4ccc5ncccc5c4)n3n2)cn1 [tosylate salt]
hygroscopicity study outcome [8]: Tacky or gummy solids or solids not exhibiting birefringence and extinction
